These results are taken from US9751869B2, “LXR modulators” (BRISTOL-MYERS SQUIBB COMPANY, priority 2013, dated 2017).

The target of this assay is T1, LXRβ (Homo sapiens, UniProt P55055).
T1 construct: Co-transfection expression plasmids, comprising full-length LXRα (pCMX-h LXRα or LXRβ (pCMX-hLXRβ)); expressed in transfected cells; host or cells: CV-1 African green monkey kidney cells, transient transfection with pCMX-hLXRβ
T1 sequence (P55055 1-460): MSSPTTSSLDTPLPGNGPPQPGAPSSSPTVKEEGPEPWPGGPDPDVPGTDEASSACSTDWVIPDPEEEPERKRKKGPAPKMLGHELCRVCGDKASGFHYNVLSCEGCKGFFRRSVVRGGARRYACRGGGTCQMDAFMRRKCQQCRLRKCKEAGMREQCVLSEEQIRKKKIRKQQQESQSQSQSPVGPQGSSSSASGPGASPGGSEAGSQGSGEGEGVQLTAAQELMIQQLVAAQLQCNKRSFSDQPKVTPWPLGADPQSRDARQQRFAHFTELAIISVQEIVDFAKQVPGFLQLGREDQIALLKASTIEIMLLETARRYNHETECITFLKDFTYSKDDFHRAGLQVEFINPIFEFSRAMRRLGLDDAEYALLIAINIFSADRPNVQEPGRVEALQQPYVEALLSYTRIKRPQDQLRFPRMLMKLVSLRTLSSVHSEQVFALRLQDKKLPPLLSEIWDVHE
T1 sequence (P19793 1-462 partner): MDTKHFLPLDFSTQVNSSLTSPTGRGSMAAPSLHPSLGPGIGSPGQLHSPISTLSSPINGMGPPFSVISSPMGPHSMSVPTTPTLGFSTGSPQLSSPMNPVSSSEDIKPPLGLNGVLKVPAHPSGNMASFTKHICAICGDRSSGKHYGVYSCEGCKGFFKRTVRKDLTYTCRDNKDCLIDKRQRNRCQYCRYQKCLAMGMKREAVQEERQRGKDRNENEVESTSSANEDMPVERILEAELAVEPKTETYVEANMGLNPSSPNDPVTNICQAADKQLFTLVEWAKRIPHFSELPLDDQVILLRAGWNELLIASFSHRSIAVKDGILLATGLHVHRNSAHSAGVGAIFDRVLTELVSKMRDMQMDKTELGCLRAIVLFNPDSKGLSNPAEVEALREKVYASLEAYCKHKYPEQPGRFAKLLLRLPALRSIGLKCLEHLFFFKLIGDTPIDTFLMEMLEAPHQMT
The assay can be described thus: LXR/LXRE co-transfection assay (luciferase reporter) in CV-1 cells, LXRβ. Format: cell-based. The settings on record: for EC50: CV-1 cells transfected with pCMX-hLXRβ and LXREx1-Tk-Luciferase, 20 hours incubation, read-out: LXRbeta agonism EC50; for Emax: CV-1 cells, relative to maximum response of high control N-(3-((4-fluorophenyl)-(naphthalene-2-sulfonyl)amino)propyl)-2,2-dimethylpropionamide, read-out: LXRbeta % EFFICACY
The essentials:
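CV-1 cells transiently co-transfected with full-length human LXRβ, LXRE-Tk-luciferase reporter and β-galactosidase control, then exposed to compound (≤0.5% DMSO) for 20 h at 37 °C before luminescence read. EC50 from 10-point, half-log dose curves; efficacy relative to the sulfonamide high control, means of 2–3 experiments.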

Take `Cn1nc(C(F)(F)C(C)(C)O)cc1-c1ccc(-c2cc(F)c(CO)c(S(C)(=O)=O)c2)cc1-n1nncc1-c1ccc2c(c1)OC(F)(F)O2` [Example 34, 1-(5-(3-(5-(2,2-difluorobenzo[d][1,3]dioxol-5-yl)-1H-1,2,3-triazol-1-yl)-3′-fluoro-4′-(hydroxymethyl)-5′-(methylsulfonyl)-[1,1′-biphenyl]-4-yl)-1-methyl-1H-pyrazol-3-yl)-1,1-difluoro-2-methylpropan-2-ol]: the concentration for a half-maximal effect (EC50) was found to be 878 nM and the Emax came to 63%.

For `Cn1nc(C(F)(F)CO)cc1-c1ccc(-c2cccc(S(C)(=O)=O)c2)cc1-n1nncc1-c1ccc2c(c1)OC(F)(F)O2` [Example 35, 2-(5-(3-(5-(2,2-difluorobenzo[d][1,3]dioxol-5-yl)-1H-1,2,3-triazol-1-yl)-3′-(methylsulfonyl)-[1,1′-biphenyl]-4-yl)-1-methyl-1H-pyrazol-3-yl)-2,2-difluoroethanol], the EC50 turned out to be 2230 nM and the Emax was 87%.

As for `Cn1nc(C(F)(F)CO)cc1-c1ccc(-c2cc(F)c(CO)c(S(C)(=O)=O)c2)cc1-n1nncc1-c1ccc2c(c1)OC(F)(F)O2` [Example 36, 2-(5-(3-(5-(2,2-difluorobenzo[d][1,3]dioxol-5-yl)-1H-1,2,3-triazol-1-yl)-3′-fluoro-4′-(hydroxymethyl)-5′-(methylsulfonyl)-[1,1′-biphenyl]-4-yl)-1-methyl-1H-pyrazol-3-yl)-2,2-difluoroethanol], the EC50 is 2730 nM and the Emax was determined as 91%.

Regarding `Cn1nc(C(=O)NC(C)(C)C#N)cc1-c1ccc(-c2cccc(S(C)(=O)=O)c2)cc1-n1nncc1-c1ccc(OC(F)(F)F)cc1` [Example 37, N-(1-cyano-1-methylethyl)-1-methyl-5-[3′-(methylsulfonyl)-3-(5-{4-[(trifluoromethyl)oxy]phenyl}-1H-1,2,3-triazol-1-yl)biphenyl-4-yl]-1H-pyrazole-3-carboxamide], the EC50 is 1560 nM and the Emax was determined as 47%.

For the compound `CN(C)C(=O)c1cc(-c2ccc(-c3cccc(S(C)(=O)=O)c3)cc2-n2nncc2-c2ccc(OC(F)(F)F)cc2)n(C)n1` [Example 38, N,N,1-trimethyl-5-[3′-(methylsulfonyl)-3-(5-{4-[(trifluoromethyl)oxy]phenyl}-1H-1,2,3-triazol-1-yl)biphenyl-4-yl]-1H-pyrazole-3-carboxamide], the EC50 turned out to be 1130 nM and the Emax is 60%.

As for `Cn1nc(C(=O)NCC(F)(F)F)cc1-c1ccc(-c2cccc(S(C)(=O)=O)c2)cc1-n1nncc1-c1ccc(OC(F)(F)F)cc1` [Example 39, 1-methyl-5-[3′-(methylsulfonyl)-3-(5-{4-[(trifluoromethyl)oxy]phenyl}-1H-1,2,3-triazol-1-yl)biphenyl-4-yl]-N-(2,2,2-trifluoroethyl)-1H-pyrazole-3-carboxamide], the EC50 is 776 nM and the Emax was determined as 79%.

As for `Cn1nc(C(=O)NC(C)(C)C)cc1-c1ccc(-c2cccc(S(C)(=O)=O)c2)cc1-n1nncc1-c1ccc(OC(F)(F)F)cc1` [Example 40, N-(1,1-dimethylethyl)-1-methyl-5-[3′-(methylsulfonyl)-3-(5-{4-[(trifluoromethyl)oxy]phenyl}-1H-1,2,3-triazol-1-yl)biphenyl-4-yl]-1H-pyrazole-3-carboxamide], the EC50 is 695 nM and the Emax turned out to be 76%.

As for `Cc1nc(-c2ccc3c(c2)OC(F)(F)O3)c(-c2cc(-c3cc(F)cc(S(C)(=O)=O)c3)ccc2-c2cc(C(F)(F)C(N)=O)nn2C)o1` [Example 45, 2-(5-(3-(4-(2,2-difluorobenzo[d][1,3]dioxol-5-yl)-2-methyloxazol-5-yl)-3′-fluoro-5′-(methylsulfonyl)biphenyl-4-yl)-1-methyl-1H-pyrazol-3-yl)-2,2-difluoroacetamide], the EC50 amounted to 297 nM and the Emax worked out at 45%.
